Data: ChEMBL document CHEMBL1157659, “Design, synthesis, and biological evaluation of 3-[4-(2-hydroxyethyl)piperazin-1-yl]-7-(6-methoxypyridin-3-yl)-1-(2-propoxyethyl)pyrido[3,4-b]pyrazin-2(1H)-one, a potent, orally active, brain penetrant inhibitor of phosphodiesterase 5 (PDE5)” (J Med Chem, 2010)
Values belong to the compound of their own block, whether it stands above or below them. Active and inactive are the calls of the source. The rule behind the calls is not given here.

Key:
Homo sapiens [1] = species: Homo sapiens; assay: Selectivity ratio of IC50 for human recombinant PDE11 to IC50 for human platelet PDE5
Homo sapiens [2] = species: Homo sapiens; assay: Selectivity ratio of IC50 for human retina PDE6 to IC50 for human platelet PDE5
[3] = molecular target: cGMP-specific 3',5'-cyclic phosphodiesterase (Homo sapiens, UniProt O76074); assay: Inhibition of human platelet PDE5 assessed as reduction in conversion of [3H]cGMP to [3H]GMP after 2 hr by scintillation proximity assay
[4] = Metabolic stability in rat microsomes assessed as compound remaining after 30 mins; format: ADME, Microsome; conditions: read-out: Stability
Plasma [5] = assay: Fraction unbound in human plasma; format: ADME, cell-free
[6] = Metabolic stability in human microsomes assessed as compound remaining after 30 mins; format: ADME, Microsome; conditions: read-out: Stability
[7] = Aqueous solubility at pH 7.4; format: physicochemical
[8] = Fraction unbound in rat plasma; format: ADME, cell-free
[9] = Plasma protein binding in rat; format: ADME, cell-free; conditions: read-out: PPB (converted)
[10] = Clearance in Sprague-Dawley rat at 1 mg/kg, iv; format: ADME, organism-based; parameters: dose 1 mg/kg, route intravenous; conditions: in vivo
Plasma [11] = assay: Plasma protein binding in human; format: ADME, cell-free
[12] = Tmax in healthy human; format: ADME, organism-based; conditions: in vivo
[13] = molecular target: cGMP-inhibited 3',5'-cyclic phosphodiesterase 3B (Homo sapiens, UniProt Q13370); assay: Inhibition of PDE3B
[14] = molecular target: High affinity cAMP-specific and IBMX-insensitive 3',5'-cyclic phosphodiesterase 8B (Homo sapiens, UniProt O95263); assay: Inhibition of PDE8B
Rattus norvegicus [15] = assay: Toxicity in iv dosed SHR rat administered as three successive escalating doses; format: organism-based; conditions: in vivo
[16] = molecular target: Dual specificity calcium/calmodulin-dependent 3',5'-cyclic nucleotide phosphodiesterase 1B (Homo sapiens, UniProt Q01064); assay: Inhibition of PDE1B
[17] = Renal clearance in dog as % compound recovered; format: ADME, organism-based, Canis lupus familiaris, Kidney; conditions: urine, read-out: Recovered in urine
[18] = molecular target: Dual specificity calcium/calmodulin-dependent 3',5'-cyclic nucleotide phosphodiesterase 1A (Homo sapiens, UniProt P54750); assay: Inhibition of PDE1A
[19] = Ratio of free drug level in iv dosed SHR rat plasma administered as three successive escalating doses to IC50 for human platelet PDE5; format: ADME, organism-based; conditions: in vivo
Rattus norvegicus [20] = assay: Antihypertensive activity in iv dosed anesthetized SHR rat assessed as reduction of systemic arterial blood pressure at free plasma concentration of 2.3 nM; format: functional, organism-based; conditions: Artery
[21] = molecular target: 3',5'-cyclic-AMP phosphodiesterase 4C (Homo sapiens, UniProt Q08493); assay: Inhibition of PDE4C
[22] = Elimination half life in healthy human; format: ADME, organism-based; conditions: in vivo, read-out: beta t1/2 (converted)
[23] = Inhibition of PDE7
[24] = Renal clearance in Sprague-Dawley rat as % compound recovered; format: ADME, organism-based, Kidney; conditions: urine, read-out: Recovered in urine
[25] = molecular target: 3',5'-cyclic-AMP phosphodiesterase 7B (Homo sapiens, UniProt Q9NP56); assay: Inhibition of PDE7B
[26] = Clearance in dog; format: ADME, organism-based, Canis lupus familiaris; conditions: in vivo
[27] = Bioavailability in dog; format: ADME, organism-based, Canis lupus familiaris; conditions: in vivo
[28] = molecular target: 3',5'-cyclic-AMP phosphodiesterase 4A (Homo sapiens, UniProt P27815); assay: Inhibition of PDE4A
[29] = Ratio of drug level in brain to blood in Sprague-Dawley rat at 10 mg/kg, sc administered as single dose measured after 2 hrs; format: ADME, organism-based; parameters: dose 10 mg/kg, route subcutaneous; conditions: read-out: BBR
Rattus norvegicus [30] = assay: Antihypertensive activity in anesthetized SHR rat assessed as reduction of systolic blood pressure at 2 mg/kg, po after 24 hrs relative to control; format: functional, Artery
[31] = Inhibition of PDE9
[32] = Inhibition of PDE2
[33] = molecular target: 3',5'-cyclic-AMP phosphodiesterase 4D (Homo sapiens, UniProt Q08499); assay: Inhibition of PDE4D
[34] = molecular target: 3',5'-cyclic-AMP phosphodiesterase 4B (Homo sapiens, UniProt Q07343); assay: Inhibition of PDE4B
[35] = Metabolic stability in cannulated Sprague-Dawley rat bile duct assessed as compound remaining after 6 hrs; format: ADME; conditions: read-out: Stability
[36] = molecular target: High affinity cAMP-specific and IBMX-insensitive 3',5'-cyclic phosphodiesterase 8A (Homo sapiens, UniProt O60658); assay: Inhibition of PDE8A
[37] = molecular target: Dual specificity calcium/calmodulin-dependent 3',5'-cyclic nucleotide phosphodiesterase 1C (Homo sapiens, UniProt Q14123); assay: Inhibition of PDE1C
[38] = Oral bioavailability in Sprague-Dawley rat at 1 mg/kg; format: ADME, organism-based; conditions: in vivo
[39] = molecular target: Voltage-gated inwardly rectifying potassium channel KCNH2 (Homo sapiens, UniProt Q12809); assay: Inhibition of human ERG by patch-clamp method
[40] = molecular target: cGMP-inhibited 3',5'-cyclic phosphodiesterase 3A (Homo sapiens, UniProt Q14432); assay: Inhibition of PDE3A
Rattus norvegicus [41] = assay: Antihypertensive activity in iv dosed anesthetized SHR rat assessed as reduction of systemic arterial blood pressure administered as three successive escalating doses measured during 30 to 50 mins portion of each 1 hr steady state infusion; format: functional, organism-based; conditions: Artery
Rattus norvegicus [42] = assay: Free plasma concentration in iv dosed anesthetized SHR rat administered as three successive escalating doses; format: ADME, organism-based; conditions: in vivo
Homo sapiens [43] = species: Homo sapiens; assay: Plasma protein binding in human; conditions: read-out: PPB (converted)
Homo sapiens [44] = species: Homo sapiens; assay: Fraction unbound in human plasma

Chain of Voltage-gated inwardly rectifying potassium channel KCNH2 (Q12809 whole entry): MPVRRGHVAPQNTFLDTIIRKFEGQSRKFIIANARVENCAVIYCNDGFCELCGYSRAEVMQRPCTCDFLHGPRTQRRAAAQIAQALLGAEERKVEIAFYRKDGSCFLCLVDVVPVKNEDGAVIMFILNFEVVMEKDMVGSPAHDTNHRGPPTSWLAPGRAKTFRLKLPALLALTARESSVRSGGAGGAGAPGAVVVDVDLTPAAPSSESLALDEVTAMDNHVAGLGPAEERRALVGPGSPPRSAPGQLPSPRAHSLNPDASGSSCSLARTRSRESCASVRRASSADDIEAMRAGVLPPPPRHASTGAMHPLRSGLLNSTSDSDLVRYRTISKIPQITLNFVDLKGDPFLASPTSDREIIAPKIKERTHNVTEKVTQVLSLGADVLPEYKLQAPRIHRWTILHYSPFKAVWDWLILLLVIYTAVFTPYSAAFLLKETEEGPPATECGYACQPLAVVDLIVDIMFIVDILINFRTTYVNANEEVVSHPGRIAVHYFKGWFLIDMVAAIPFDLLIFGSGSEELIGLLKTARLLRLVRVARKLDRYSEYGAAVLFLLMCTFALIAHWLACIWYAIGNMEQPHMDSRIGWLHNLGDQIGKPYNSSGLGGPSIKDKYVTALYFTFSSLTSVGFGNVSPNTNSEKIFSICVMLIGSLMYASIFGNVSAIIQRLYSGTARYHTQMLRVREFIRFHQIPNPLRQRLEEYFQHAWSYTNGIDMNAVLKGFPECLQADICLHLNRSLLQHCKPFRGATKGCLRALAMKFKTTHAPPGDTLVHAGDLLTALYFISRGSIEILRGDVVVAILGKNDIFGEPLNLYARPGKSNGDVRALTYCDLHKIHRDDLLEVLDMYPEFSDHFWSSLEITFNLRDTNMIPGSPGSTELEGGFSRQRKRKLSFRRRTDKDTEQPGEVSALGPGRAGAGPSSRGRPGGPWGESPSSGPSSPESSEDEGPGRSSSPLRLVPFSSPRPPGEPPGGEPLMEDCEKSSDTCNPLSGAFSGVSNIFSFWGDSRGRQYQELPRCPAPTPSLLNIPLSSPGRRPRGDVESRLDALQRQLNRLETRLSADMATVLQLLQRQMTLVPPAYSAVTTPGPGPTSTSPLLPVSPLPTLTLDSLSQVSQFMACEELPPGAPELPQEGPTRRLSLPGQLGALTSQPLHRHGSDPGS
Chain of High affinity cAMP-specific and IBMX-insensitive 3',5'-cyclic phosphodiesterase 8A (O60658 whole entry): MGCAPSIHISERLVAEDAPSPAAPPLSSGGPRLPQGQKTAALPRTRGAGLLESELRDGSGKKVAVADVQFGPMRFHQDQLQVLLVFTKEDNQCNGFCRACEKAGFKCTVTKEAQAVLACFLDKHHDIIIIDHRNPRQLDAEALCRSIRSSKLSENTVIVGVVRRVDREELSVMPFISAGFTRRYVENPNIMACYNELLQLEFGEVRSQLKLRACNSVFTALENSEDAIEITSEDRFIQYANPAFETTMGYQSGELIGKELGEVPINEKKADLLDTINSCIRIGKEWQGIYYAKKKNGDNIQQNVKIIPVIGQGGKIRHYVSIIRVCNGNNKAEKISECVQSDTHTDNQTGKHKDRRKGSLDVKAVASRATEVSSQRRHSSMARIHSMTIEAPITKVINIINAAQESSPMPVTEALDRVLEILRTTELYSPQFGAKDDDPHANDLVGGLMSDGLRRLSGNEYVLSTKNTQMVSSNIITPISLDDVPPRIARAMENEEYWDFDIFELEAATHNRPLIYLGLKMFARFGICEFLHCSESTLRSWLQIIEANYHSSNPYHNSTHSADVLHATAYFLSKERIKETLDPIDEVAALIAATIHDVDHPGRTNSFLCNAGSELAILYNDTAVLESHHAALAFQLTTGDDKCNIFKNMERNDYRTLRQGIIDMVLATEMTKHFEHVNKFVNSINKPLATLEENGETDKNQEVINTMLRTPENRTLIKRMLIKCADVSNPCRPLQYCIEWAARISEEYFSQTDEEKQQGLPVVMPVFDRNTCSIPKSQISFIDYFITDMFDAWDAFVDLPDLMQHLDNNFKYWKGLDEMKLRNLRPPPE
Chain of High affinity cAMP-specific and IBMX-insensitive 3',5'-cyclic phosphodiesterase 8B (O95263 whole entry): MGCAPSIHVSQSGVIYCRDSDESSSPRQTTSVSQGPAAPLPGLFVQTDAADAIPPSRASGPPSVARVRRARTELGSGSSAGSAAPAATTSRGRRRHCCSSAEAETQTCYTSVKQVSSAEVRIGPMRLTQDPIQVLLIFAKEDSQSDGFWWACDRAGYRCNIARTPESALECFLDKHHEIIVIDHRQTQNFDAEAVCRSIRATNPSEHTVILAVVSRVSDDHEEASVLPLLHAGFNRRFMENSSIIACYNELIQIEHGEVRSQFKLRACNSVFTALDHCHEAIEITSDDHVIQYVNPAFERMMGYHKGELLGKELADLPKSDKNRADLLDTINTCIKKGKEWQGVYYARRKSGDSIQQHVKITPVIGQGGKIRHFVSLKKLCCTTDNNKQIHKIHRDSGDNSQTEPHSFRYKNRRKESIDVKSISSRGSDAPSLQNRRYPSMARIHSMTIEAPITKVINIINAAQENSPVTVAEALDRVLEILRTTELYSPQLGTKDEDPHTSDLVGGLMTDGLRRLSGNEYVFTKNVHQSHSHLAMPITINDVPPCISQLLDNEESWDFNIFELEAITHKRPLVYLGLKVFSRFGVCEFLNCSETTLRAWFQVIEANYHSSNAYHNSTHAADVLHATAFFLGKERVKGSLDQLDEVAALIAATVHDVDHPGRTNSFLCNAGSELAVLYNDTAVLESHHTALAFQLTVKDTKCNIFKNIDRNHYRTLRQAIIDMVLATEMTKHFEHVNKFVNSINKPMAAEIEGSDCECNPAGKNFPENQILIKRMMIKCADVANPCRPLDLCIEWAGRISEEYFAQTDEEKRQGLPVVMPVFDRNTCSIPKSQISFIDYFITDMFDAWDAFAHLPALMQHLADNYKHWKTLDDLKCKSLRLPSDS
Chain of cGMP-inhibited 3',5'-cyclic phosphodiesterase 3B (Q13370 whole entry): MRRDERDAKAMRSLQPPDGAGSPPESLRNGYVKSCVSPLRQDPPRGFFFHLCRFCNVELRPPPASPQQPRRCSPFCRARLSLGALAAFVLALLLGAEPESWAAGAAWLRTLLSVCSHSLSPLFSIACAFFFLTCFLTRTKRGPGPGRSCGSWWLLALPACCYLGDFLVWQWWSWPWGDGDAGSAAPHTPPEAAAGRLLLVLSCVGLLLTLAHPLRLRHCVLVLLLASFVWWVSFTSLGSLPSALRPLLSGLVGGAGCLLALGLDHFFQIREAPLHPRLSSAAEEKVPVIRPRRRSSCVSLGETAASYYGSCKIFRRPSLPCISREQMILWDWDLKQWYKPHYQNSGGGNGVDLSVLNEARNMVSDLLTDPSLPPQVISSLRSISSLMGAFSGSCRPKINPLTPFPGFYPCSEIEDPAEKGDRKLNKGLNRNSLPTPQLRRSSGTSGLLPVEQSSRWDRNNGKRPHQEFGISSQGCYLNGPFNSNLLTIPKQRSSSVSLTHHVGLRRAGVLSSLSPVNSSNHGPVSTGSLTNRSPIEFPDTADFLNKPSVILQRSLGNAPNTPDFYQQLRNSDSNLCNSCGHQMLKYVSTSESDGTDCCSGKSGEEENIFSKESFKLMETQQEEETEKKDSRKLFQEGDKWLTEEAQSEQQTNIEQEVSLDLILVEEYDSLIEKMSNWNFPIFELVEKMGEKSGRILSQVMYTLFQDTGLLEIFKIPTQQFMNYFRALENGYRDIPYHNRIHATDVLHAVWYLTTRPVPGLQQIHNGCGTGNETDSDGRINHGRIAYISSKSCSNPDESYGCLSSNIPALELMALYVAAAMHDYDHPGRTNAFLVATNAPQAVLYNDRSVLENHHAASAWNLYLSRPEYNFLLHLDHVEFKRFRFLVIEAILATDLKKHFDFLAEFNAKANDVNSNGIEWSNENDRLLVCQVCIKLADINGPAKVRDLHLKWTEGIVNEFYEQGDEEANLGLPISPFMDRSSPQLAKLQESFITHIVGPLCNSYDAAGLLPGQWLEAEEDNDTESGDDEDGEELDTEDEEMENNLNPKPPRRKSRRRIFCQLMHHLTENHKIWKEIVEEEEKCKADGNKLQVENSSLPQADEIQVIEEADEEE
Chain of Dual specificity calcium/calmodulin-dependent 3',5'-cyclic nucleotide phosphodiesterase 1B (Q01064 whole entry): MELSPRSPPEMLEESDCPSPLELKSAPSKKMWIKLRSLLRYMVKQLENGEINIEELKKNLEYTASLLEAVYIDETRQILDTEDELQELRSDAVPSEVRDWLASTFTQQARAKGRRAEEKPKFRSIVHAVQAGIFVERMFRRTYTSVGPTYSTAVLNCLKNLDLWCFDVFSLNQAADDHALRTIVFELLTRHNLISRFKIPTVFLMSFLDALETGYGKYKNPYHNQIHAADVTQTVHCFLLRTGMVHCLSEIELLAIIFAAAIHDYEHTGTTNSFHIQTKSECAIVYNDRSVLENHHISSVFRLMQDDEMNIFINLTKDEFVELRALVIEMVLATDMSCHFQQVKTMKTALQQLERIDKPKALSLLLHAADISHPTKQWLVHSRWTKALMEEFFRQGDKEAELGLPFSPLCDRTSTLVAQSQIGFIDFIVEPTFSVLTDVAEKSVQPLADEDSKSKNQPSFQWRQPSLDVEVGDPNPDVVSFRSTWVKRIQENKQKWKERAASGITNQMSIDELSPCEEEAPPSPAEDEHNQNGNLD
Chain of Dual specificity calcium/calmodulin-dependent 3',5'-cyclic nucleotide phosphodiesterase 1A (P54750 whole entry): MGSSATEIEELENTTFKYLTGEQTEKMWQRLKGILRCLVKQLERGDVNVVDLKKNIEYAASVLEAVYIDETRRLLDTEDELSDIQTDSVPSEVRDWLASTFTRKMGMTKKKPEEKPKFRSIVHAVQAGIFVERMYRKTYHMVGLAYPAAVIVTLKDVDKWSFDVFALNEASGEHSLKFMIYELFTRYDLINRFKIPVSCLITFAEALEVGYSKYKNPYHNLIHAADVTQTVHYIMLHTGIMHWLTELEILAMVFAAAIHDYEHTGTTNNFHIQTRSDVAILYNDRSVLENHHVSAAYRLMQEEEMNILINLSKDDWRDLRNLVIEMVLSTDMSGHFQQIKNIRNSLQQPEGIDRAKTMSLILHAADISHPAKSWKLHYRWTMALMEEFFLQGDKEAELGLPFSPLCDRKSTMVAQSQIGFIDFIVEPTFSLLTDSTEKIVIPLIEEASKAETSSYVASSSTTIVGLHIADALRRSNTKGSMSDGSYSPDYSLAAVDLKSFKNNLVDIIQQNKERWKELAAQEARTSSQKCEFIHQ

Structure (SMILES): CCCOCCn1c(=O)c(NCCN)nc2cnc(-c3ccc(OC)nc3)cc21
- remaining at 0.5 h [4]: 98%
- Fu (Plasma [5]): 18%
- Ratio IC50 (Homo sapiens [1]): > 8000
- remaining at 0.5 h [6]: 97%
- solubility [7]: > 100 µM
- Ratio IC50 (Homo sapiens [2]): 4840
- fraction unbound [8]: 0.18
- fraction unbound [9]: 0.166
- clearance [10]: 10.2 L/h/kg
- PPB (Plasma [11]): 69.4%

Structure (SMILES): CCCOCCn1c(=O)c(N2CCN([C@@H](C)[C@@H](C)O)CC2)nc2cnc(-c3ccc(OC)nc3)cc21 (racemic)
- Ratio IC50 (Homo sapiens [1]): 1740
- Ratio IC50 (Homo sapiens [2]): 134
- IC50 [39]: 0.054 µM

Structure (SMILES): CCCOCCn1c(=O)c(N2C[C@H]3C[C@@H]2CN3)nc2cnc(-c3ccc(OC)nc3)cc21
- Ratio IC50 (Homo sapiens [1]): 456
- Ratio IC50 (Homo sapiens [2]): 93

Structure (SMILES): CCCOCCn1c(=O)c(N2CCCN(CCCO)CC2)nc2cnc(-c3ccc(OC)nc3)cc21
- Ratio IC50 (Homo sapiens [1]): > 1860
- Ratio IC50 (Homo sapiens [2]): 94

Structure (SMILES): CCCOCCn1c(=O)c(N2CCNCC2)nc2cnc(-c3ccc(OC)nc3)cc21
- remaining at 0.5 h [4]: 86%
- remaining at 0.5 h [6]: 86%
- fraction unbound [9]: 0.158
- clearance [10]: 2.52 L/h/kg
- IC50 [39]: 0.67 µM

Structure (SMILES): CCCOCCn1c(=O)c(NCCNCCO)nc2cnc(-c3ccc(OC)nc3)cc21
- remaining at 0.5 h [4]: 100%
- Ratio IC50 (Homo sapiens [1]): > 1780
- fraction unbound (Homo sapiens [43]): 0.212
- remaining at 0.5 h [6]: 95%
- solubility [7]: > 100 µM
- Ratio IC50 (Homo sapiens [2]): 242
- fraction unbound [8]: 0.18
- fraction unbound [9]: 0.226
- clearance [10]: 34.9 L/h/kg
- IC50 [39]: 4.5 µM
- fraction unbound (Homo sapiens [44]): 0.18

Structure (SMILES): CCCOCCn1c(=O)c(N2CCN([C@H](C)[C@@H](C)O)CC2)nc2cnc(-c3ccc(OC)nc3)cc21 (racemic)
- Ratio IC50 (Homo sapiens [1]): 2090
- Ratio IC50 (Homo sapiens [2]): 68
- IC50 [3]: 0.0003 µM

Structure (SMILES): CCCOCCn1c(=O)c(N2CCCN(CCO)CC2)nc2cnc(-c3ccc(OC)nc3)cc21
- Ratio IC50 (Homo sapiens [1]): > 2780
- Ratio IC50 (Homo sapiens [2]): 70

Second part, led by results:

- Ratio IC50 (Homo sapiens [1]): 1400
- Ratio IC50 (Homo sapiens [2]): 49
- IC50 [3]: 0.00031 µM
Structure (SMILES): CCCOCCn1c(=O)c(N2CCN(C[C@H](C)O)CC2)nc2cnc(-c3ccc(OC)nc3)cc21

- IC50 [3]: 0.00022 µM
Structure (SMILES): CCCOCCn1c(=O)c(N2CCN(CC)CC2)nc2cnc(-c3ccc(OC)nc3)cc21

- Ratio IC50 (Homo sapiens [1]): 4260
- Ratio IC50 (Homo sapiens [2]): 62
- IC50 [3]: 0.00018 µM
Structure (SMILES): CCCOCCn1c(=O)c(N2CCN(CCCO)CC2)nc2cnc(-c3ccc(OC)nc3)cc21

- remaining at 0.5 h [4]: 89%
- Tmax [12]: 1 h
- IC50 [13]: > 2 µM
- Fu (Plasma [5]): 18%
- Ratio IC50 (Homo sapiens [1]): 2460
- IC50 [14]: > 2 µM
- IC50 [16]: > 2 µM
- dose excreted [17]: < 2%
- IC50 [18]: > 2 µM
- Ratio [19]: 11
- IC50 [21]: > 2 µM
- half-life [22]: 17 h
- IC50 [23]: > 2 µM
- dose excreted [24]: < 2%
- IC50 [25]: > 2 µM
- clearance [26]: 0.348 L/h/kg
- remaining at 0.5 h [6]: 85%
- bioavailability [27]: 92%
- IC50 [28]: > 2 µM
- Kp at 2 h [29]: 4
- Ratio IC50 (Homo sapiens [2]): 158
- fraction unbound [8]: 0.18
- fraction unbound [9]: 0.171
- IC50 [31]: > 2 µM
- IC50 [32]: > 2 µM
- IC50 [33]: > 2 µM
- IC50 [34]: > 2 µM
- remaining at 6 h [35]: 2%
- IC50 [36]: > 2 µM
- clearance [10]: 2.22 L/h/kg
- IC50 [37]: > 2 µM
- bioavailability [38]: 69%
- IC50 [3]: 0.0002 µM
- IC50 [40]: > 2 µM
- PPB (Plasma [11]): 67.8%
- Cp(f) (Rattus norvegicus [42]): 2.3 nM
Structure (SMILES): CCCOCCn1c(=O)c(N2CCN(CCO)CC2)nc2cnc(-c3ccc(OC)nc3)cc21 [PF-03049423]
- Activity (Rattus norvegicus [15]): Non-toxic
- Activity (Rattus norvegicus [20]): Active
- Activity (Rattus norvegicus [30]): 25 mmHg
- IC50 [39]: 1.79 µM
- Activity (Rattus norvegicus [41]): Active

- Ratio IC50 (Homo sapiens [1]): 2380
- Ratio IC50 (Homo sapiens [2]): 134
- IC50 [3]: 0.00023 µM
Structure (SMILES): CCCOCCn1c(=O)c(N2CCN(C[C@@H](C)O)CC2)nc2cnc(-c3ccc(OC)nc3)cc21
- IC50 [39]: 0.23 µM

- Ratio IC50 (Homo sapiens [1]): 1370
- Ratio IC50 (Homo sapiens [2]): 64
Structure (SMILES): CCCOCCn1c(=O)c(N2CCN(CC(C)(C)O)CC2)nc2cnc(-c3ccc(OC)nc3)cc21
